In patent US20150258059A1, “ANTIMICROBIAL AND RADIOPROTECTIVE COMPOUNDS” (BioDiem, Ltd, priority 2001, published 2015):

What was measured:
Bacillus subtilis = experiment: Stability of stock solutions on storage, potency by MIC/MBC; assay type: cell-based
B. subtilis = experiment: Antibacterial activity in the presence of blood, macrodilution; assay type: cell-based; conditions: for MIC: Bacillus subtilis
[1] = system: β-hemolytic streptococcus B-624; experiment: Sensitivity of strains: suppression of growth; assay type: cell-based; conditions: Compound (1) 1.0%; antibiotics disc method
Enterococcus faecalis = experiment: Agar plug diffusion, zone of retardation; conditions: plug impregnated at 0.5%
[2] = stock 512 μg/mL stored 4° C., 0 weeks
[3] = stock 512 μg/mL stored 4° C., 2 weeks
[4] = stock 512 μg/mL stored 4° C., 4 weeks
[5] = stock 512 μg/mL stored 4° C., 6 weeks
[6] = stock 512 μg/mL stored 4° C., 8 weeks
[7] = stock 512 μg/mL stored 4° C., 10 weeks
[8] = stock 512 μg/mL stored 4° C., 12 weeks
[9] = stock 512 μg/mL stored RT, 0 weeks
[10] = stock 512 μg/mL stored RT, 2 weeks
[11] = stock 512 μg/mL stored RT, 4 weeks
[12] = stock 512 μg/mL stored RT, 6 weeks
[13] = stock 512 μg/mL stored RT, 8 weeks
[14] = stock 512 μg/mL stored RT, 10 weeks
[15] = stock 512 μg/mL stored RT, 12 weeks
[16] = stock 512 μg/mL stored −20° C., 0 weeks
[17] = stock 512 μg/mL stored −20° C., 2 weeks
[18] = stock 512 μg/mL stored −20° C., 4 weeks
[19] = stock 512 μg/mL stored −20° C., 6 weeks
[20] = stock 512 μg/mL stored −20° C., 8 weeks
[21] = stock 512 μg/mL stored −20° C., 10 weeks
[22] = stock 512 μg/mL stored −20° C., 12 weeks

C/C(=C\c1ccc2c(c1)OCO2)[N+](=O)[O-] [Compound (1)]
+: Suppression of Growth (+/−) [1]
16 µg/mL: MBC (Bacillus subtilis; [4]) | MBC (Bacillus subtilis; [5]) | MBC (Bacillus subtilis; [6]) | MBC (Bacillus subtilis; [7]) | MBC (Bacillus subtilis; [8]) | MBC (Bacillus subtilis; [12]) | MBC (Bacillus subtilis; [13]) | MBC (Bacillus subtilis; [14]) | MBC (Bacillus subtilis; [15]) | MBC (Bacillus subtilis; [18]) | MBC (Bacillus subtilis; [19]) | MBC (Bacillus subtilis; [20]) | MBC (Bacillus subtilis; [21]) | MBC (Bacillus subtilis; [22]) | MMC (B. subtilis; 5% blood) | MIC (B. subtilis; — (no plasma or blood))
very stable: stability of dilute solutions on storage (Bacillus subtilis; 12 weeks at 4° C. and −20° C.)
4 µg/mL: MIC (Bacillus subtilis; [2]) | MIC (Bacillus subtilis; [3]) | MIC (Bacillus subtilis; [4]) | MIC (Bacillus subtilis; [5]) | MIC (Bacillus subtilis; [6]) | MIC (Bacillus subtilis; [7]) | MIC (Bacillus subtilis; [8]) | MIC (Bacillus subtilis; [9]) | MIC (Bacillus subtilis; [10]) | MIC (Bacillus subtilis; [11]) | MIC (Bacillus subtilis; [12]) | MIC (Bacillus subtilis; [16]) | MIC (Bacillus subtilis; [17]) | MIC (Bacillus subtilis; [18]) | MIC (Bacillus subtilis; [19]) | MIC (Bacillus subtilis; [20]) | MIC (Bacillus subtilis; [21]) | MIC (Bacillus subtilis; [22])
6: Size of zone of retardation of the growth (Enterococcus faecalis)
8 µg/mL: MBC (Bacillus subtilis; [2]) | MBC (Bacillus subtilis; [3]) | MBC (Bacillus subtilis; [9]) | MBC (Bacillus subtilis; [10]) | MBC (Bacillus subtilis; [11]) | MIC (Bacillus subtilis; [13]) | MIC (Bacillus subtilis; [14]) | MIC (Bacillus subtilis; [15]) | MBC (Bacillus subtilis; [16]) | MBC (Bacillus subtilis; [17]) | MMC (B. subtilis; 10% plasma) | MIC (B. subtilis; 5% blood) | MIC (B. subtilis; 10% plasma)
